Several values for one entry are separate records, joined by “and”; a condition that tells them apart may be missing. Equal entries are not always repeated.
System: 126254-015-R-J1-PDC complex spheroid growth, % test/control
Assay: Anticancer human tumor 126254-015-R-J1-PDC patient-derived soft tissue sarcoma cell line growth inhibition [Asc]
Conditions: for viability, T/C: stronger effect = lower value
Experimental: Multicellular complex tumor spheroid response to apoptosis pathway targeting inhibitors Alrizomadlin, Pelcitoclax, and Dasminapant in combination with a variety of drugs and investigational agents in selected tumor cell lines
The MDM2 inhibitor alrizomadlin, the Bcl-2/Bcl-xL inhibitor pelcitoclax, and the IAPs inhibitor dasminapant were evaluated both individually and in combination with standard of care and investigational anticancer small molecules within a complex spheroid model of solid tumors. . Complex spheroids include a stromal component modeled by human endothelial cells (HUVEC) and fibroblasts modeled by human mesenchymal stem cells (MSCs). The concentration ranges selected for each drug and investigational agent were based upon clinically achievable concentrations if the clinical Cmax of the agent was known.
Compounds. The drugs and investigational agents: alrizomadlin (APG-115; NSC831270), pelcitoclax (APG-1252; NSC835773), dasminapant (APG-1387;NSC834197), TAK-243 (NSC785004), copanlisib (NSC809693), olaparib (NSC753686), talazoparib (NSC767125), cobimetinib (NSC 768068), eltanexor (KPT-8602, NSC 794443), abemaciclib (NSC 768073), sotorasib (NSC818433), adagrasib (NSC 831453), MRTX-1133 (NSC 836407), Iadademestat (ORY1001, NSC 806812), and RMC-4630 (NSC839698), were obtained from the NCI Developmental Therapeutics Program Chemical Repository. The FDA-approved anticancer drug set is available from the Developmental Therapeutics Program at https://dtp.cancer.gov/organization/dscb/obtaining/available plates.htm. […] The stock solutions were prepared in dimethyl sulfoxide (DMSO, Sigma-Aldrich, St. Louis, MO, cat. D2650) at 800-fold the tested concentration and stored at -70 degrees C prior to their use. All drugs and investigational agents were tested over a range starting from a high concentration at or near the clinical Cmax and decreasing in half-log increments. If the clinical Cmax for an agent had not been determined, the highest concentration tested was 10 microM.
The patient-derived cancer (PDC) cell lines include five colon adenocarcinomas: 186277-243-T-J2-PDC, 616215-338-R-J1-PDC, 439559-082-T-J2-PDC, 463943-066-T-J2-PDC, and 519858-162-T-J1-PDC; three pancreatic carcinomas: 323965-272-R-J2-PDC, 521955-158-R6-J3-PDC, and 521955-158-R2-J5-PDC; two uterine sarcomas: 327498-152-R-J2-PDC and 993429-296-R-J1-PDC; two rhabdomyosarcomas: 755483-174-R-J1-PDC and 772245-204-R-J1-PDC; two soft tissue sarcomas: 126254-015-R-J1-PDC and 494315-158-R-J1-PDC; two malignant fibrous histiocytomas: 317291-083-R-J1-PDC and 596521-263-R-J1-PDC; two breast carcinomas: 171881-019-R-J1-PDC and 885512-296-R-J2-PDC; and one ovarian carcinoma: 6556581-035-R-J-PDC were obtained from the NCI PDMR, (https://pdmr.cancer.gov). The established cell lines HSSY-2 synovial sarcoma (RRID:CVCL 8719), SYO-1 synovial sarcoma (RRID:CVCL_7146), MPNST malignant peripheral neural sheath tumor were obtained from the Sloan Kettering Institute. The following established cell lines were purchased from the American Type Culture Collection (ATCC, Manassas, VA), Sor the received from the NCI repository:, PANC-1 pancreatic carcinoma (CRL-1469, RRID:CVCL_0480), OVCAR-5 ovarian carcinoma (RRID:CVCL_1628), OVCAR-8 ovarian carcinoma (RRID:CVCL_1629), , MCF-7 breast carcinoma (CRL-12584, RRID:CVCL_0031), MDA-MB-231 breast carcinoma (CRL-12532, RRID:CVCL_0062), NCI-H1876 small cell lung carcinoma (CRL-5902, RRID:CVCL_1503), NCI-H510A small cell lung carcinoma (HTB-184, RRID:CVCL_1565), NCI-H1417 (CRL-5869, RRID:CVCL_1469), and NCI-H196 small cell lung carcinoma (CRL-5823, RRID:CVCL_1509). Dr. Peter Houghton (Greehey Children's Cancer Research Institute, University of Texas Health Science Center, San Antonio, TX) provided Rh-18 rhabdomyosarcoma (RRID:CVCL_1659). Pooled donor human umbilical vein endothelial cells (HUVEC, Lonza, cat. CC-2519) and human mesenchymal stem cells (hMSC, Lonza, cat. PT-2501) were purchased from Lonza (Walkersville, MD).
Cell Culture. […]

[1] = curve of first compound, second compound 0.03 µM
[2] = curve of first compound, second compound 0.0949 µM
[3] = curve of first compound, second compound 0.3 µM
[4] = curve of first compound, second compound 0.949 µM
[5] = curve of first compound, second compound 3 µM
[6] = second compound 0.03 µM, first compound 0.0316 µM
[7] = second compound 0.03 µM, first compound 0.1 µM
[8] = second compound 0.0949 µM, first compound 0.0316 µM
[9] = second compound 0.0949 µM, first compound 0.1 µM
[10] = second compound 0.3 µM, first compound 0.0316 µM
[11] = second compound 0.3 µM, first compound 0.1 µM
[12] = second compound 0.949 µM, first compound 0.0316 µM
[13] = second compound 0.949 µM, first compound 0.1 µM
[14] = second compound 3 µM, first compound 0.0316 µM
[15] = second compound 3 µM, first compound 0.1 µM
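Note: spheroids exposed to compound for seven days.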
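Throughout, for viability, T/C: 100% = DMSO vehicle control wells.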

SMILES: C#Cc1c(F)ccc2cc(O)cc(-c3ncc4c(N5CC6CCC(C5)N6)nc(OCC56CCCN5CC(F)C6)nc4c3F)c12 (stereo not drawn)
- viability, T/C (compound 0.0316 µM): 97.4% and 92.6% and 97.8%
- viability, T/C (compound 0.1 µM): 92.8% and 89.8% and 108%
- viability, T/C (compound 0.316 µM): 100% and 97.5% and 103%
- viability, T/C (compound 1 µM): 94.1% and 97.4% and 93.6%
- viability, T/C (compound 3.16 µM): 101% and 95% and 92.8%
- viability, T/C (compound 10 µM): 82.5% and 76.4% and 72.9%
- IC50 (curve of compound): > 10 µM

SMILES: Cc1c(S(C)(=O)=O)c(-c2cc(F)cc(N3CCN(c4ccc(NS(=O)(=O)c5ccc(NC(CCN6CCC(C(=O)OCCCP(=O)(O)O)CC6)CSc6ccccc6)c(S(=O)(=O)C(F)(F)F)c5)cc4)CC3)c2)c(-c2ccc(Cl)cc2)n1C(C)C (stereo not drawn)
- viability, T/C (compound 0.1 µM): 86.8% [middle of 14 runs]
- viability, T/C (compound 0.316 µM): 85.8% [middle of 13 runs]
- viability, T/C (compound 1 µM): 84.3% [middle of 14 runs]
- viability, T/C (compound 3.16 µM): 87.8% [middle of 14 runs]
- viability, T/C (compound 10 µM): 81.8% [middle of 14 runs]
- IC50 (compound alone, run of 09/27/2022): > 10 µM

SMILES: Cn1ncnc1[C@H]1c2n[nH]c(=O)c3cc(F)cc(c23)N[C@@H]1c1ccc(F)cc1 + CCN1C(C(=O)NC23CCC(C(=O)O)(CC2)CC3)C(c2cccc(Cl)c2F)C2(C(=O)Nc3cc(Cl)ccc32)C12CCCCC2
- IC50 [1]: > 0.1 µM
- IC50 [2]: > 0.1 µM
- IC50 [3]: > 0.1 µM
- IC50 [4]: > 0.1 µM
- IC50 [5]: > 0.1 µM
- viability, T/C (second compound 0.03 µM, first compound 0.000316 µM): 88.6%
- viability, T/C (second compound 0.03 µM, first compound 0.001 µM): 108%
- viability, T/C (second compound 0.03 µM, first compound 0.00316 µM): 88%
- viability, T/C (second compound 0.03 µM, first compound 0.01 µM): 96.5%
- viability, T/C [6]: 83.9%
- viability, T/C [7]: 75.4%
- viability, T/C (second compound 0.0949 µM, first compound 0.000316 µM): 101%
- viability, T/C (second compound 0.0949 µM, first compound 0.001 µM): 102%
- viability, T/C (second compound 0.0949 µM, first compound 0.00316 µM): 88.4%
- viability, T/C (second compound 0.0949 µM, first compound 0.01 µM): 78.2%
- viability, T/C [8]: 84.7%
- viability, T/C [9]: 68%
- viability, T/C (second compound 0.3 µM, first compound 0.000316 µM): 97%
- viability, T/C (second compound 0.3 µM, first compound 0.001 µM): 111%
- viability, T/C (second compound 0.3 µM, first compound 0.00316 µM): 104%
- viability, T/C (second compound 0.3 µM, first compound 0.01 µM): 81.7%
- viability, T/C [10]: 80.7%
- viability, T/C [11]: 75.2%
- viability, T/C (second compound 0.949 µM, first compound 0.000316 µM): 95.3%
- viability, T/C (second compound 0.949 µM, first compound 0.001 µM): 90.9%
- viability, T/C (second compound 0.949 µM, first compound 0.00316 µM): 95.6%
- viability, T/C (second compound 0.949 µM, first compound 0.01 µM): 86%
- viability, T/C [12]: 95.8%
- viability, T/C [13]: 90.5%
- viability, T/C (second compound 3 µM, first compound 0.000316 µM): 96.3%
- viability, T/C (second compound 3 µM, first compound 0.001 µM): 103%
- viability, T/C (second compound 3 µM, first compound 0.00316 µM): 89.9%
- viability, T/C (second compound 3 µM, first compound 0.01 µM): 84.8%
- viability, T/C [14]: 82%
- viability, T/C [15]: 81.6%

SMILES: O=C(c1cc(Cc2n[nH]c(=O)c3ccccc23)ccc1F)N1CCN(C(=O)C2CC2)CC1 + CCN1C(C(=O)NC23CCC(C(=O)O)(CC2)CC3)C(c2cccc(Cl)c2F)C2(C(=O)Nc3cc(Cl)ccc32)C12CCCCC2
- IC50 [1]: > 10 µM
- IC50 [2]: > 10 µM
- IC50 [3]: > 10 µM
- IC50 [4]: > 10 µM
- IC50 [5]: > 10 µM
- viability, T/C [6]: 95.7%
- viability, T/C [7]: 87.7%
- viability, T/C (second compound 0.03 µM, first compound 0.316 µM): 90.3%
- viability, T/C (second compound 0.03 µM, first compound 1 µM): 74.5%
- viability, T/C (second compound 0.03 µM, first compound 3.16 µM): 84.1%
- viability, T/C (second compound 0.03 µM, first compound 10 µM): 60%
- viability, T/C [8]: 95.5%
- viability, T/C [9]: 100%
- viability, T/C (second compound 0.0949 µM, first compound 0.316 µM): 87.7%
- viability, T/C (second compound 0.0949 µM, first compound 1 µM): 97.4%
- viability, T/C (second compound 0.0949 µM, first compound 3.16 µM): 83.2%
- viability, T/C (second compound 0.0949 µM, first compound 10 µM): 59.2%
- viability, T/C [10]: 98.4%
- viability, T/C [11]: 90.9%
- viability, T/C (second compound 0.3 µM, first compound 0.316 µM): 92.2%
- viability, T/C (second compound 0.3 µM, first compound 1 µM): 83.6%
- viability, T/C (second compound 0.3 µM, first compound 3.16 µM): 77.2%
- viability, T/C (second compound 0.3 µM, first compound 10 µM): 59%
- viability, T/C [12]: 90%
- viability, T/C [13]: 97%
- viability, T/C (second compound 0.949 µM, first compound 0.316 µM): 93.6%
- viability, T/C (second compound 0.949 µM, first compound 1 µM): 83.9%
- viability, T/C (second compound 0.949 µM, first compound 3.16 µM): 73.8%
- viability, T/C (second compound 0.949 µM, first compound 10 µM): 59.3%
- viability, T/C [14]: 88.8%
- viability, T/C [15]: 90.5%
- viability, T/C (second compound 3 µM, first compound 0.316 µM): 93.7%
- viability, T/C (second compound 3 µM, first compound 1 µM): 85.4%
- viability, T/C (second compound 3 µM, first compound 3.16 µM): 73.1%
- viability, T/C (second compound 3 µM, first compound 10 µM): 70.5%
